From the Kinase Knowledgebase extract (Sharma et al. 2016)

Biological target: PIK3CA (human) (UniProt P42336)
Experiment: Assessment of PIK3CA Kinase Activity

Sequence of PIK3CA (human) (P42336 whole entry, looked up): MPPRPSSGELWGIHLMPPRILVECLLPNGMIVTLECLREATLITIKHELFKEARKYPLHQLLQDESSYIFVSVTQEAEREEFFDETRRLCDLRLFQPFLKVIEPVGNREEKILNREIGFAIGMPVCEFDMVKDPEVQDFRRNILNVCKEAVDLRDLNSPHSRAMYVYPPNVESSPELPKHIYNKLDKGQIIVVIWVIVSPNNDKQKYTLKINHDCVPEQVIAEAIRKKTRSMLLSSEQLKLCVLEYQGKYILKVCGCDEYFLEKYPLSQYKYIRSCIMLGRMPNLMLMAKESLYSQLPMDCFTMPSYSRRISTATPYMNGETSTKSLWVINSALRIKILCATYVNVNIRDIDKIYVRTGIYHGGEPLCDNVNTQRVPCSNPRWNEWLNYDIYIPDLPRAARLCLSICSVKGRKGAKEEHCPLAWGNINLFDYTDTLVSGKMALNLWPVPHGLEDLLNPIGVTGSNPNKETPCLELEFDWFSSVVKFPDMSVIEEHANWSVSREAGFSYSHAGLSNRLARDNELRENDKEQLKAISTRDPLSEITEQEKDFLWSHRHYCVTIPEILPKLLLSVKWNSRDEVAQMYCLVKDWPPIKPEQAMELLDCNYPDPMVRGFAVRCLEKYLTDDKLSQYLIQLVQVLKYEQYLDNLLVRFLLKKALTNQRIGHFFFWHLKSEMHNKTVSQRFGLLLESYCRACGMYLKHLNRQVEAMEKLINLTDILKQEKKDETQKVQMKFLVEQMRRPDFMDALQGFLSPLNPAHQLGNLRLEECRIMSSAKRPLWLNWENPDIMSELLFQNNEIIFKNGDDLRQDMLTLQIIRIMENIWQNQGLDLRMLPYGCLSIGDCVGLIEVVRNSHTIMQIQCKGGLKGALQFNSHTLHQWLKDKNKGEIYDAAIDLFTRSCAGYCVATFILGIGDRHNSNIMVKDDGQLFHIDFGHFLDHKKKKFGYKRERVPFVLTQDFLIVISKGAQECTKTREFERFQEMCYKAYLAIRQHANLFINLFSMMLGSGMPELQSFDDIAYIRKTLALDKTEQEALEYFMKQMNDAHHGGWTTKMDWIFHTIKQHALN

IC50, < 1 µM:
CC(C)n1nc(N)nc1-c1cn2c(n1)-c1cc(-c3cncnc3)ccc1OCC2, COc1ccc(CNc2cc3c(cn2)-c2nc(-c4nc(C)nn4CC(F)(F)F)cn2CCO3)cc1OC, CC(C)n1ncnc1-c1cn2c(n1)-c1cnc(N3CCC(C(N)=O)CC3)cc1OCC2, NC(=O)[C@@H]1CCCN1c1cc2c(cn1)-c1nc(-c3ncnn3C3CCCCC3)cn1CCO2, CC(C)n1ccnc1-c1cn2c(n1)-c1cnc(N3CCC[C@H]3C(N)=O)cc1OCC2, O=C(Nc1cn[nH]c1)c1ccc2c(c1)-n1nc(-c3ncnn3CC(F)(F)F)cc1CCO2, CC(C)(CO)NC(=O)c1ccc2c(c1)-c1nc(-c3nccn3-c3ccccc3Cl)cn1CCO2, Cc1ccc2c(c1)-c1nc(-c3nc(C)nn3C(C)C)cn1CCO2, Cc1nc(-c2cn3c(n2)-c2ccc(-c4cncc(F)c4)cc2OCC3)n(C(C)C)n1, CC(C)n1ncnc1-c1cn2c(n1)-c1ccc([C@@H](C)C(N)=O)cc1OCC2, OCCN1CC(c2ccc3c(c2)OCCc2cn(-c4ncnn4-c4ccc(F)cc4F)nc2-3)C1, CC(C)N(CCO)C(=O)c1cn2c(n1)-c1ccc(C3CCN(CC(=O)N(C)C)CC3)cc1OCC2, CC(C)n1ncnc1-c1cn2c(n1)-c1cnc(N3CC[C@@H](O)C3)cc1OCC2, CC(C)n1ncnc1-c1cn2c(n1)-c1ccc(-c3cnn(C(C)(C)C(=O)O)c3)cc1OCC2, CC(C)n1ncnc1-c1cn2c(n1)-c1cc(NCC(O)CO)ncc1OCC2 (configuration not stated), Cn1ccnc1C(O)CNc1cc2c(cn1)-c1nc(-c3ncnn3-c3ccc(F)cc3F)cn1CCO2 (configuration not stated), Cc1nc(-c2cn3c(n2)-c2cnc(N4CCC[C@H]4C(N)=O)cc2OCC3)n(C(C)C)n1, CC(C)n1ncnc1-c1cn2c(n1)-c1ccc(N3CCNC(=O)C3)nc1OCC2, CC(C)N1CCC(c2ccc3c(c2)OCCn2cc(-c4ncnn4C(C)C)nc2-3)C(C(N)=O)C1 (configuration not stated), CC(C)n1ncnc1-c1cn2c(n1)-c1cnc(N[C@H](C)C(N)=O)cc1OCC2, CC(C)n1ncnc1-c1cn2c(n1)-c1ccc(C3CCN(C(C)(C)CO)CC3)cc1OCC2, CS(=O)(=O)CCNC(=O)c1ccc2c(c1)OCCn1cc(-c3ncnn3-c3ccccc3Cl)nc1-2, CNC(=O)C(C)(C)N1CCC(c2ccc3c(c2)OCCn2cc(-c4ncnn4C(C)C)nc2-3)C(O)C1 (configuration not stated), CC(C)n1nc(N)nc1-c1cn2c(n1)-c1ccc(-c3cncc(F)c3)cc1OCC2, CCOc1ccccc1-c1cn2c(n1)-c1ccc(C(=O)OC)cc1OCC2, CC(C)n1ncnc1-c1cn2c(n1)-c1ccc(-c3ccc(Cl)cc3)cc1OCC2, CC(C)n1ncnc1-c1cn2c(n1)-c1cnc(N3C[C@H](F)C[C@H]3C(N)=O)cc1OCC2, CS(=O)(=O)c1ccccc1CNc1cc2c(cn1)-c1nc(-c3ncnn3-c3ccc(F)cc3F)cn1CCO2, CC(C)n1ncnc1-c1cn2c(n1)-c1ccc(-c3ccccc3C(N)=O)cc1OCC2, Cc1nc(-c2cn3c(n2)-c2ccc(-c4cnn(C5CN(CCO)C5)c4)cc2OCC3)n(C(C)C)n1, OCCN1CCC(c2ccc3c(c2)-c2nn(-c4ncnn4-c4ccc(F)cc4F)cc2CCO3)CC1, CC(C)n1ncnc1-c1cn2c(n1)-c1ccc(C3CCN(CC(N)=O)CC3)cc1OCC2, O=C(c1ccc2c(c1)-c1nc(-c3ncnn3CC(F)(F)F)cn1CCO2)N1CCN(CCO)CC1, OCc1nc(-c2cn3c(n2)-c2cnc(Cl)cc2OCC3)n(CC(F)(F)F)n1, CC(C)n1ncc(C#N)c1-c1cn2c(n1)-c1ccc(C(N)=O)cc1OCC2, Cc1nc(-c2cn3c(n2)-c2ccc([C@H]4CCCN4C(N)=O)cc2OCC3)n(C(C)C)n1, CC(C)n1ncnc1-c1cn2c(n1)-c1cnc(N[C@@H](C)C(N)=O)cc1OCC2, CC(C)n1ncnc1-c1cn2c(n1)-c1cnccc1OCC2, CC(C)n1ncnc1-c1cn2c(n1)-c1ccc(C3CCN(CC(F)(F)F)CC3)cc1OCC2, CC(C)n1ncnc1-c1cn2c(n1)-c1cnc(N3CCC[C@H]3C(N)=O)cc1OCC2, CC(C)n1ncnc1-c1cn2c(n1)-c1cnc(N3CCOCC3)cc1OCC2, Cc1nc(-c2cn3c(n2)-c2ccc(-c4cnn(C)c4)cc2OCC3)n(C(C)C)n1, CC(C)n1ncnc1-n1cc2c(n1)-c1cc(-c3cn[nH]c3)ccc1OCC2, CC(Cc1ccc2c(c1)OCCn1cc(-c3ncnn3C(C)C)nc1-2)C(N)=O (configuration not stated), Clc1ccccc1-n1ncnc1-c1cn2c(n1)-c1cc(-c3cncnc3)ccc1OCC2, NC(=O)[C@@H]1CCCN1c1ccc2c(c1)OCCn1cc(-c3ncnn3CC(F)(F)F)nc1-2, CC(C)n1nccc1-c1cn2c(n1)-c1ccc(C(N)=O)cc1OCC2, Cc1nc(-c2ccc3c(c2)OCCn2cc(-c4ncnn4C(C)C)nc2-3)cn1C, CC(C)n1ncnc1-c1cn2c(n1)-c1cnc(N3CCN(CC(N)=O)CC3)cc1OCC2, NC(=O)[C@@H]1COCCN1c1ccc2c(c1)OCCn1cc(-c3ncnn3CC(F)(F)F)nc1-2, CC(C)[C@@H](Oc1ccc2c(c1)OCCn1cc(-c3ncnn3CC(F)(F)F)nc1-2)C(N)=O, Cc1nc(-c2ccc3c(c2)OCCn2cc(-c4ncnn4C(C)C)nc2-3)cn1CCOC1CCCCO1 (configuration not stated), C[C@H](Oc1ccc2c(c1)OCCn1cc(-c3ncnn3C3CC3)nc1-2)C(N)=O, CC(C)n1ncnc1-c1cn2c(n1)-c1cnc(N3C4CCC3C(=O)NC4)cc1OCC2 (configuration not stated), CC(C)n1ncnc1-c1cc2n(n1)-c1cc(C3CN(CC(N)=O)C3)ccc1OCC2, Cc1nc(-c2cn3c(n2)-c2cc(-c4cc[nH]c(=O)c4)ccc2OCC3)n(C(C)C)n1, CC(C)n1ncnc1-c1cn2c(n1)-c1ccc(C(=O)NC(C)(C)CO)cc1OCC2, CNC(=O)c1ccc2c(c1)OCCn1cc(-c3ncnn3-c3ccc(F)cc3F)nc1-2, COc1cc2c(cn1)-c1nc(-c3ncnn3C(C)C)cn1CCO2, Cc1nc(-c2cn3c(n2)-c2ccc(N)cc2OCC3)n(C(C)C)n1, Cc1nc(-c2cn3c(n2)-c2cnc(NCC(N)=O)cc2OCC3)n(CC(F)(F)F)n1, COCc1nc(-c2cn3c(n2)-c2ccc(C)cc2OCC3)n(C(C)C)n1
